*1 amine or outer side, *2 acyl side, *3 side chain or, on linkers, in order; H or OH if unused. Where a SMILES comes first, the peptide text is derived from it. [ ]: non-standard residue; d: D form. Gly(9-fluorenyl) = N[C@H](C(=O)O)C1c2ccccc2-c2ccccc21; X1 = O=C([C@@H](N[*:1])[C@H]1CCc2ccccc21)[*:2]; Tic = O=C(O)[C@@H]1Cc2ccccc2CN1
How the values were obtained:
[1] = target: T1, B2 bradykinin receptor (Homo sapiens, UniProt P30411); assay: Binding affinity to B2 bradykinin receptor (unknown origin)
T1 sequence (P30411 whole entry): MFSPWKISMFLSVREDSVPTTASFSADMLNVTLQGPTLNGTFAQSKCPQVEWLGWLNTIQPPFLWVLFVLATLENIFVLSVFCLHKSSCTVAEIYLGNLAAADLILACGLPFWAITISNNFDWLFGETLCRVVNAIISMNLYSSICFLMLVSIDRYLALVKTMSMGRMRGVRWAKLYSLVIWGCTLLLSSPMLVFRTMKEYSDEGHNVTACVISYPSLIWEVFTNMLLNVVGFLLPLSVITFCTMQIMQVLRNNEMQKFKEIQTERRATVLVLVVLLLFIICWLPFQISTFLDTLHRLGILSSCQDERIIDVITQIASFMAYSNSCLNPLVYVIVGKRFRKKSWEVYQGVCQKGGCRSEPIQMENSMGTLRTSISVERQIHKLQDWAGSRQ

[2] = target: T1, B2 bradykinin receptor; assay: Antagonist potency at B2 bradykinin receptor (unknown origin); conditions: read-out: pA2 (converted)
[3] = Inhibition of farnesyltransferase (unknown origin); parameters: species or system Homo sapiens
[4] = target: Substance-P receptor (Homo sapiens, UniProt P25103); assay: Inhibition of [3H]SP binding to human neurokinin receptor 1 expressed in CHO cells; assay type: cell-based
[5] = target: T2, Angiotensin-converting enzyme (Homo sapiens, UniProt P12821); assay: Binding affinity to angiotensin-converting enzyme (unknown origin) assessed as inhibition constant
[6] = target: Neprilysin (Homo sapiens, UniProt P08473); assay: Binding affinity to neutral endopeptidase (unknown origin) assessed as inhibition constant
[7] = target: Substance-P receptor (Rattus norvegicus, UniProt P14600); assay: Inhibition of [125I]BHSP binding to neurokinin receptor 1 in rat brain synaptosomes; assay type: subcellular, Synaptosome
[8] = target: T2, Angiotensin-converting enzyme; assay: Inhibition of angiotensin-converting enzyme (unknown origin)

N=C(N)NCCCC(NC(=O)CN1CCCCC2(CCCN2C(=O)[C@H](CO)NC(=O)[C@H](Cc2ccccc2)NC(=O)CNC(=O)[C@@H]2CCCN2C(=O)[C@@H]2CCCN2C(=O)[C@@H](N)CCCNC(=N)N)C1=O)C(=O)O (mixture of isomers; 67)
Ki ([1]; read-out: pKi (converted)): 1260 nM

N=C(N)NCCC[C@@H](N)C(=O)N[C@@H](CCCNC(=N)N)C(=O)N1CCC[C@H]1C(=O)N1C[C@H](O)C[C@H]1C(=O)NCC(=O)N[C@@H](Cc1cccs1)C(=O)N[C@@H](CO)C(=O)N[C@@H]1Cc2ccccc2CN(CC(=O)N[C@@H](CCCNC(=N)N)C(=O)O)C1=O
Ki ([1]; read-out: pKi (converted)): 316 nM
Kb [2]: 2510 nM

N=C(N)NCCC[C@@H](N)C(=O)N[C@@H](CCCNC(=N)N)C(=O)N1CCC[C@H]1C(=O)N1C[C@H](O)C[C@H]1C(=O)NCC(=O)N[C@@H](Cc1cccs1)C(=O)N[C@H]1CSSC[C@@H](C(=O)N[C@@H](CCCNC(=N)N)C(=O)O)NC(=O)[C@H](Cc2ccccc2)NC(=O)[C@H](Cc2ccccc2)NC1=O
Ki ([1]; read-out: Ki): 876 nM
Kb [2]: 3980 nM

N=C(N)NCCCC(NC(=O)[C@@H]1C[C@@H]2CCC[C@@H]2N1C(=O)[C@H]1Cc2ccccc2CN1C(=O)[C@H](CO)NC(=O)[C@H](Cc1cccs1)NC(=O)CNC(=O)[C@@H]1C[C@@H](O)CN1C(=O)[C@@H]1CCCN1C(=O)[C@H](CCCNC(=N)N)NC(=O)[C@H](N)CCCNC(=N)N)C(=O)O (stereo partly drawn)
Ki ([1]; read-out: Ki): 0.18 nM
Kb [2]: 0.398 nM

N=C(N)NCCC[C@@H](N)C(=O)N[C@@H](CCCNC(=N)N)C(=O)N1CCC[C@H]1C(=O)N1C[C@H](O)C[C@H]1C(=O)NCC(=O)N[C@@H](Cc1cccs1)C(=O)N[C@@H](CO)C(=O)N1CCC[C@]12Cc1ccccc1CN(CC(=O)N[C@@H](CCCNC(=N)N)C(=O)O)C2=O
Ki ([1]; read-out: pKi (converted)): 25.1 nM
Kb [2]: 3160 nM

CSCC[C@H](NC(=O)[C@@H]1Cc2ccccc2CN1C(=O)[C@@H](NC(=O)[C@@H](N)CS)C(C)C)C(=O)O (H-CV[Tic]M-OH)
IC50 [3]: 1 nM

N=C(N)NCCC[C@@H](N)C(=O)N[C@@H](CCCNC(=N)N)C(=O)N1CCC[C@H]1C(=O)N1C[C@H](O)C[C@H]1C(=O)NCC(=O)N[C@@H](Cc1cccs1)C(=O)N[C@@H](CO)C(=O)N1CCC[C@@]12Cc1ccccc1CN(CC(=O)N[C@@H](CCCNC(=N)N)C(=O)O)C2=O
Ki ([1]; read-out: pKi (converted)): 3.16 nM
Kb [2]: 2000 nM

CSCC[C@H](NC(=O)[C@@H]1Cc2ccccc2CN1C(=O)[C@@H](NC(=O)[C@H](CS)NC(=O)[C@@H](N)CCCCN)C(C)C)C(=O)O
IC50 [3]: 20 nM

H-KCVFM-OH
IC50 [3]: 1000 nM

N=C(N)NCCCC(NC(=O)CN1CCCCC2(CCCN2C(=O)[C@H](CO)NC(=O)[C@H](Cc2ccccc2)NC(=O)CNC(=O)[C@@H]2CCCN2C(=O)[C@@H]2CCCN2C(=O)[C@@H](N)CCCNC(=N)N)C1=O)C(=O)O (mixture of isomers; 68)
Ki ([1]; read-out: pKi (converted)): 251 nM

CC(C)C[C@H](NC(=O)CNC(=O)OCc1ccccc1)C(=O)NC1(C(=O)OCc2cc(C(F)(F)F)cc(C(F)(F)F)c2)CNc2[nH]c3ccccc3c2C1 (stereo partly drawn)
Ki [4]: 200 nM

O=C(O)CN1Cc2ccccc2C[C@H](N[C@@H](CCc2ccccc2)C(=O)O)C1=O
Ki [5]: 10 nM

N=C(N)NCCC[C@H](NC(=O)CN1Cc2ccccc2C[C@@H](NC(=O)[C@H](CO)NC(=O)[C@H](Cc2ccccc2)NC(=O)CNC(=O)[C@@H]2CCCN2C(=O)[C@@H]2CCCN2C(=O)[C@@H](N)CCCNC(=N)N)C1=O)C(=O)O
Ki ([1]; read-out: pKi (converted)): 2510 nM

CC(C)C[C@H](NC(=O)CNC(=O)OCc1ccccc1)C(=O)N1Cc2[nH]c3ccccc3c2C[C@H]1C(=O)OCc1cc(C(F)(F)F)cc(C(F)(F)F)c1
Ki [4]: 63 nM

CSCC[C@H](NC(=O)[C@H]1Cc2ccccc2CN1C(=O)[C@@H](NC(=O)[C@H](CS)NC(=O)[C@@H](N)CCCCN)C(C)C)C(=O)O
IC50 [3]: 100000 nM

C[C@H](C(=O)N[C@@H](CCCNC(=N)N)C(=O)O)N1Cc2ccccc2C[C@@H](NC(=O)[C@H](CO)NC(=O)[C@H](Cc2ccccc2)NC(=O)CNC(=O)[C@@H]2CCCN2C(=O)[C@@H]2CCCN2C(=O)[C@@H](N)CCCNC(=N)N)C1=O
Ki ([1]; read-out: pKi (converted)): 501 nM

CC(C)C[C@@H](C(=O)O)N1CCO[C@@H](c2ccccc2)[C@H](NC(=O)[C@@H](S)Cc2ccccc2)C1=O
Ki [6]: 330 nM
Ki [5]: 50000 nM

CSCC[C@H](NC(=O)[C@H](Cc1ccccc1)NC(=O)[C@@H](NC(=O)[C@H](CS)NC(C)=O)C(C)C)C(=O)O (Ac-CVFM-OH)
IC50 [3]: 250 nM

N=C(N)NCCC[C@@H](N)C(=O)N[C@@H](CCCNC(=N)N)C(=O)N1CCC[C@H]1C(=O)N1C[C@H](O)C[C@H]1C(=O)NCC(=O)N[C@@H](Cc1cccs1)C(=O)N[C@@H](CO)C(=O)N[C@H]1Cc2ccccc2CN(CC(=O)N[C@@H](CCCNC(=N)N)C(=O)O)C1=O
Ki ([1]; read-out: pKi (converted)): 200 nM

H-RPKEQFFGIM-OH
IC50 [7]: 0.64 nM

C[C@H](N[C@@H](CCc1ccccc1)C(=O)O)C(=O)N1CCc2ccccc2[C@H]1C(=O)O
IC50 [8]: 5.8 nM

CC(C)C[C@@H](C(=O)O)N1Cc2ccccc2C[C@H](NC(=O)[C@@H](S)Cc2ccccc2)C1=O
Ki [6]: 0.4 nM

CC(=O)NC1(C(=O)OCc2cc(C(F)(F)F)cc(C(F)(F)F)c2)CCc2[nH]c3ccccc3c2C1 (stereo not drawn)
Ki [4]: 765 nM

CC(=O)N1Cc2[nH]c3ccccc3c2C[C@H]1C(=O)OCc1cc(C(F)(F)F)cc(C(F)(F)F)c1
Ki [4]: 390 nM

N=C(N)NCCC[C@H](NC(=O)CN1Cc2ccccc2CC(NC(=O)[C@H](CO)NC(=O)[C@H](Cc2ccccc2)NC(=O)CNC(=O)[C@@H]2CCCN2C(=O)[C@@H]2CCCN2C(=O)[C@@H](N)CCCNC(=N)N)C1=O)C(=O)O (mixture of isomers)
Ki ([1]; read-out: pKi (converted)): 794 nM

O=C(O)[C@H](CCc1ccccc1)N[C@H]1Cc2ccccc2[C@H]2CCC[C@@H](C(=O)O)N2C1=O
Ki [6]: > 10 nM
Ki [5]: 0.004 nM

C[C@H](N[C@@H](CCc1ccccc1)C(=O)O)C(=O)N1Cc2ccccc2[C@H]1C(=O)O
IC50 [8]: 44 nM

CCOC(=O)[C@H](CCc1ccccc1)N[C@@H](C)C(=O)N1[C@H](C(=O)O)C[C@@H]2CCC[C@@H]21
IC50 [8]: 4.2 nM

CSCC[C@H](NC(=O)C1CC=CCN1C(=O)[C@@H](NC[C@@H](N)CS)C(C)C)C(=O)O (stereo partly drawn)
IC50 [3]: 270 nM

CSCC[C@H](NC(=O)[C@H]1Cc2ccccc2CN1C(=O)[C@@H]1CCCN1C(=O)[C@H](CS)NC(=O)[C@@H](N)CCCCN)C(=O)O
IC50 [3]: 100000 nM

N=C(N)NCCC[C@@H](N)C(=O)N[C@@H](CCCNC(=N)N)C(=O)N1CCC[C@H]1C(=O)N1C[C@H](O)C[C@H]1C(=O)NCC(=O)N[C@@H](Cc1cccs1)C(=O)N[C@@H](CO)C(=O)N1Cc2ccccc2C[C@@H]1C(=O)N1Cc2ccccc2C[C@@H]1C(=O)N[C@@H](CCCNC(=N)N)C(=O)O
Ki ([1]; read-out: Ki): 571 nM
Kb [2]: 2510 nM

CC[C@H](C)[C@H](NC(=O)CNC(=O)[C@@H]1Cc2ccccc2CN1C(=O)[C@H](Cc1ccccc1)NC(=O)[C@H](CCC(N)=O)NC(=O)[C@H](CCC(=O)O)NC(=O)[C@H](CCCCN)NC(=O)[C@@H]1CCCN1C(=O)[C@@H](N)CCCNC(=N)N)C(=O)N[C@@H](CCSC)C(=O)O (H-RPKEQF[Tic]GIM-OH)
IC50 [7]: 1200 nM

CC[C@H](C)[C@H](NC(=O)CNC(=O)[C@H](Cc1ccccc1)NC(=O)[C@@H](NC(=O)[C@H](CCC(N)=O)NC(=O)[C@H](CCC(=O)O)NC(=O)[C@H](CCCCN)NC(=O)[C@@H]1CCCN1C(=O)[C@@H](N)CCCNC(=N)N)[C@H]1CCc2ccccc21)C(=O)N[C@@H](CCSC)C(=O)O (H-RPKEQ[X1]FGIM-OH)
IC50 [7]: 3 nM

CSCC[C@H](NC(=O)[C@H]1Cc2ccccc2CN1C(=O)[C@H](C(C)C)N(C)C(=O)[C@H](CS)NC(=O)[C@@H](N)CCCCN)C(=O)O
IC50 [3]: 5 nM

N=C(N)NCCC[C@@H](N)C(=O)N[C@@H](CCCNC(=N)N)C(=O)N1CCC[C@H]1C(=O)N1C[C@H](O)C[C@H]1C(=O)NCC(=O)N[C@@H](Cc1cccs1)C(=O)N[C@@H](CO)C(=O)N1Cc2ccccc2C[C@@H]1C(=O)N1Cc2ccccc2C[C@H]1C(=O)N[C@@H](CCCNC(=N)N)C(=O)O
Ki ([1]; read-out: Ki): 0.38 nM
Kb [2]: 0.794 nM

CC[C@H](C)[C@H](NC(=O)CNC(=O)[C@@H](NC(=O)[C@H](Cc1ccccc1)NC(=O)[C@H](CCC(N)=O)NC(=O)[C@H](CCC(=O)O)NC(=O)[C@H](CCCCN)NC(=O)[C@@H]1CCCN1C(=O)[C@@H](N)CCCNC(=N)N)C1c2ccccc2-c2ccccc21)C(=O)N[C@@H](CCSC)C(=O)O (H-RPKEQF[Gly(9-fluorenyl)]GIM-OH)
IC50 [7]: 3 nM

CSCC[C@H](NC(=O)[C@@H]1Cc2ccccc2CN1C(=O)[C@@H](NC[C@@H](N)CS)C(C)C)C(=O)O
IC50 [3]: 0.6 nM

O=C(CS)N[C@H]1Cc2ccccc2[C@H]2CCC[C@@H](C(=O)O)N2C1=O
Ki [6]: 5 nM
Ki [5]: 2 nM

CSCC[C@H](NC(=O)[C@@H]1Cc2ccccc2CN1C(=O)[C@@H](NC(=O)[C@H](CS)NC(C)=O)C(C)C)C(=O)O (Ac-CV[Tic]M-OH)
IC50 [3]: 11 nM

CC[C@H](C)[C@H](NC(=O)CNC(=O)[C@H](Cc1ccccc1)NC(=O)[C@@H]1Cc2ccccc2CN1C(=O)[C@H](CCC(N)=O)NC(=O)[C@H](CCC(=O)O)NC(=O)[C@H](CCCCN)NC(=O)[C@@H]1CCCN1C(=O)[C@@H](N)CCCNC(=N)N)C(=O)N[C@@H](CCSC)C(=O)O (H-RPKEQ[Tic]FGIM-OH)
IC50 [7]: 2400 nM

CSCC[C@H](NC(=O)[C@@H]1Cc2ccccc2CN1C[C@@H](NC(=O)[C@@H](N)CS)C(C)C)C(=O)O
IC50 [3]: 0.37 nM

CCC[C@H](N[C@@H](C)C(=O)N1[C@H](C(=O)O)C[C@@H]2CCCC[C@@H]21)C(=O)OCC [PERINDOPRIL]
IC50 [8]: 3.6 nM

O=C(O)CN1C(=O)[C@@H](N[C@@H](CCc2ccccc2)C(=O)O)CCc2ccccc21 [BENAZEPRILAT]
IC50 [8]: 1.7 nM
